According to patent US10919896B2, “Preparation and uses of pyrimidinone derivatives” (Cancer Research Technology Limited, priority 2016, dated 2021):

The molecules below were run against Cdc7/ASK (Homo sapiens, UniProt O00311) (assay: Cdc7 Biochemical Assay Method 1: 384 well ELISA, whole protein substrate MCM2, antibody against Phospho MCM2 (S53)). Conditions: 2 μM ATP, read-out: Biochemical Method 1 (pIC50) (converted).
Cdc7/ASK, sequence (O00311 whole entry): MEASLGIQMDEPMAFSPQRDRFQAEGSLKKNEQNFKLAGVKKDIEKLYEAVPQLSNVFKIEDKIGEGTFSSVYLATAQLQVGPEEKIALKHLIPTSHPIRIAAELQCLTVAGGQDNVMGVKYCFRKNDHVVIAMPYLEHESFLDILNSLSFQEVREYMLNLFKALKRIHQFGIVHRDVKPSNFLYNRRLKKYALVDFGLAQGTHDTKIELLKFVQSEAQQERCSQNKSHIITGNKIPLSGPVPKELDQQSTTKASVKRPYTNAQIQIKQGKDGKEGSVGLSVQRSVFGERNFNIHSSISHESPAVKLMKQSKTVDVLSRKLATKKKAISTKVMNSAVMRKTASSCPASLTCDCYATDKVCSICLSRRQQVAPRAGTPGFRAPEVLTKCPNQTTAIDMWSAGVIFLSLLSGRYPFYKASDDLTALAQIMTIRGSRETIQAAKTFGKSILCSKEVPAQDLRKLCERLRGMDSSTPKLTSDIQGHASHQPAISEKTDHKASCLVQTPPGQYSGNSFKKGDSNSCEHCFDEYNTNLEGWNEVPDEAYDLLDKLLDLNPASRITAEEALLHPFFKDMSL
Cdc7/ASK, sequence (Q9UBU7 whole entry partner): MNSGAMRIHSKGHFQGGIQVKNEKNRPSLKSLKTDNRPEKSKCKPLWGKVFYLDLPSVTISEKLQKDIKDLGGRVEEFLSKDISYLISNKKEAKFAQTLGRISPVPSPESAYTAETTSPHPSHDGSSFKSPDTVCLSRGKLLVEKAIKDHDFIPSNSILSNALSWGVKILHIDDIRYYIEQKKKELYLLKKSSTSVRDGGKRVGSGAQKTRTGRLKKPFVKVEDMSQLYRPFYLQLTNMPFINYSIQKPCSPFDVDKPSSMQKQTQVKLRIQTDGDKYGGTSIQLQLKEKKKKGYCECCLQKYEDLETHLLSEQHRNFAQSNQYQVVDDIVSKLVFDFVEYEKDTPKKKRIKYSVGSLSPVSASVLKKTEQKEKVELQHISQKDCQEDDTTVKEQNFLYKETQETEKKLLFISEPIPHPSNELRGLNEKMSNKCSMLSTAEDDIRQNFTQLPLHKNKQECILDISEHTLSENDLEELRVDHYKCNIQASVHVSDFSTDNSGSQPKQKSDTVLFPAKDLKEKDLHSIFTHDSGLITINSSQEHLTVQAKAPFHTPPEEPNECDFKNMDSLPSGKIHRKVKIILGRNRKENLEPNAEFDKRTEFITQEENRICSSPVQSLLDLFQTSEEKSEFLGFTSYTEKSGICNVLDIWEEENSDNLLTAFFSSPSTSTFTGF
Set-up: purchased
Description: This protocol describes a method for assaying Cdc7/ASK for activity. The assay is a 384 well ELISA assay, utilising a whole protein substrate (MCM2) and an antibody against Phospho MCM2 (S53). This site is thought to be specific to Cdc7/ASK phosphorylation and the assay has been validated using knockout mutants. Reagents • TBS: 25 mM Tris pH 7.2, 150 mM NaCl. (Dilute 10× stock by 1:10). • Wash Buffer: TBS+0.05% Tween 20. (Add 100 mL 1 M Tris pH 7.2, 120 mL 5 M NaCl and 2 mL 100% Tween 20 per 4 L). • Kinase Reaction Buffer: 50 mM Tris-HCl pH 8.5, 10 mM MgCl2, 1 mM DTT. (Dilute 10× stock by 1:10 and add 100 μL 1M DTT per 100 mL prior to assay). • Diethanolamine Buffer: 1 M diethanolamine pH 9.8, 0.5 mM MgCl2. • Stop Solution: 1 M NaOH. • MCM2 was expressed and purified in-house and used in the assay at a final assay concentration of 436 ng/well. • Cdc7/ASK is purchased from commercial suppliers and used in the assay at a final assay concentration of 37.97 ng/well or 20.63 nM. • ATP used as a final assay concentration of 2 μM. • Primary Antibody: Rabbit anti-Phospho MCM2 (S53 Antibody (BL3353)), is purchased from commercial suppliers at 0.2 mg/mL and used at a final assay concentration by diluting 1:800 in TBS. • Secondary Antibody: Anti-Rabbit/AP Antibody is supplied is purchased from commercial suppliers at 1 mg/mL and used at a final assay concentration by diluting 1:2000 in TBS. • Development Reagent: Dissolve one 20 mg PNPP tablet (Sigma, product […], 20 mg per tablet) per 20 mL diethanolamine Buffer (or one 5 mg PNPP tablet per 5 mL diethanolamine buffer). Cover in foil and leave shaking on a roller shaker at room temperature for up to an hour to dissolve. Methods • 1. Add 20 μL 1× working stock of Substrate (MCM2) in TBS to all wells of a clear, 384 well, Nickel-chelate microplate to give a final concentration of […]. Incubate at room temperature for at least 1 hour. Plates can be pre-coated for 1 hour and stored at 4° C. for up to 8 days. • 2. Wash with TBS+0.05% Tween 20 (80 μL×3). • 3. Add 2 μL 10× test compounds, including the positive control, in 40% DMSO/water to 'test' wells. Add 2 μL 40% DMSO/water to 'control' and 'blank' wells. The final DMSO concentration will be 4%. • 4. Add 13 μL CDC7/ASK Kinase (1.5× stock) in Kinase Reaction Buffer to 'test' and 'control' wells to give a final concentration of […]. Add 13 μL Kinase Reaction Buffer to 'blank' wells. • 5. Add 5 μL ATP (4× stock) in Kinase Reaction Buffer to all wells to give a final concentration of 2 μM. • 6. Incubate at room temperature for 90 minutes. • 7. Wash with TBS+0.05% Tween 20 (80 μL×3). • 8. Add 20 μL 1× working solution of Primary Antibody in TBS to all wells. Incubate at room temperature for 30 minutes. • 9. Wash with TBS+0.05% Tween 20 (80 μL×3). • 10. Add 20 μL 1× working solution of Secondary Antibody in TBS to all wells. Incubate at room temperature for 30 minutes. • 11. Wash with TBS+0.05% Tween 20 (80 μL×3). • 12. Add 20 μL 1× Development Reagent to all wells. • 13. Incubate at room temperature for 2 hours. Stop the reaction by adding 20 μL Stop Solution to all wells and record Absorbance on a Pherastar plate reader. Percentage inhibition values were calculated from absorbance values, using the no compound (DMSO) and no enzyme control values as 0% and 100% inhibition, respectively. IC50 determination was performed with ExcelFit software (IDBS) using curve fit 205. Z' factors were determined for each plate tested and were all above 0.5. Method 2
`CC(N)C(=O)N1CCC(c2nc(-c3ccncc3)[nH]c(=O)c2Cl)CC1` (stereo not drawn) [Compound 75] gave an IC50 of 9.12 nM. Molecule `O=c1[nH]c(-c2ccnc(C(F)(F)F)c2)nc(C2CCOCC2)c1Cl` [Compound 24] has an IC50 of 1020 nM. For `O=c1[nH]c(-c2ccncc2)nc(N2CCN[C@H](Cc3ccccc3)C2)c1Cl` [Compound 165], the IC50 was 126 nM. Molecule `O=c1[nH]c(-c2ccncc2)nc(C2CCCOC2)c1Cl` (stereo not drawn) [Compound 16] has an IC50 of 12.9 nM. `CC(=O)c1ccc(C(=O)N2CCC(c3nc(-c4ccncc4)[nH]c(=O)c3Cl)CC2)cc1` [Compound 60] was tested, and the IC50 was 1.91 nM. `O=c1[nH]c(-c2ccncc2)nc(N2CCNC(c3cccc(O)c3)C2)c1Cl` (stereo not drawn) [Compound 178] showed an IC50 of 4.27 nM. `Cc1cc(C(=O)N2CCC(c3nc(-c4ccncc4)[nH]c(=O)c3Cl)CC2)no1` [Compound 69] gave an IC50 of 3.55 nM.

Each molecule was assayed against Cdc7/Dbf4 (Homo sapiens, UniProt O00311) (assay: Cdc7 Biochemical Assay Method 3: Cdc7/Dbf4 Enzyme TR-FRET Assay measuring pS40MCM2). Conditions: 1 μM ATP, read-out: Biochemical Method 3 (pIC50) (converted).
Cdc7/Dbf4, sequence (O00311 whole entry): as the sequence (O00311 whole entry) above
Cdc7/Dbf4, sequence (Q9UBU7 whole entry partner): as the sequence (Q9UBU7 whole entry partner) above
Description: This protocol describes a method for assaying a compounds' ability to inhibit Cdc7 activity by measuring pS40MCM2 levels in a Cdc7/Dbf4 Enzyme TR-FRET Assay.
2.5 nM Cdc7/Dbf4 was incubated with 100 nM of biotin-labelled peptide 35-TDALTS(pS)PGRDLP in the presence of 1 μM ATP at 25° C. for 120 minutes. The phosphorylation of the peptide was detected using TR-FRET. Anti-Mcm2 (pS40) antibody, Terbium anti-rabbit secondary antibody and Streptavidin-Alexa Fluor488 form the detection system.
For `O=c1[nH]c(-c2ccnc(F)c2)nc(N2CC[C@H](O)C2)c1Cl` [Compound 215], the IC50 was 14.1 nM. `CNC(=O)C1CCCN(c2nc(-c3ccnc(F)c3)[nH]c(=O)c2Cl)C1` (stereo not drawn) [Compound 253] was tested, and the IC50 was 7.41 nM. Work on `CN(c1nc(-c2ccnc(F)c2)[nH]c(=O)c1Cl)C1CCOCC1` [Compound 229] yielded an IC50 of 8.51 nM. Work on `O=c1[nH]c(-c2ccnc(F)c2)nc(N2CC[C@@H](O)C2)c1Cl` [Compound 214] yielded an IC50 of 14.8 nM. With `O=c1[nH]c(-c2ccnc(F)c2)nc(O[C@H]2CCCNC2)c1Cl` [Compound 331] the IC50 was 9.55 nM. With `O=c1[nH]c(-c2ccnc(F)c2)nc(NCC2COCCN2)c1Cl` (stereo not drawn) [Compound 224] the IC50 was 724 nM. `O=c1[nH]c(-c2ccnc(F)c2)nc(OC2CNC2)c1Cl` [Compound 194] was tested, and the IC50 was 14.5 nM. Work on `CC(C)c1nnc2n1CCN(c1nc(-c3ccnc(F)c3)[nH]c(=O)c1Cl)C2` [Compound 270] yielded an IC50 of 20.9 nM. `O=c1[nH]c(-c2ccnc(F)c2)nc(N2CCCN(CC(F)(F)F)CC2)c1Cl` [Compound 299] showed an IC50 of 6.46 nM. `O=c1[nH]c(-c2ccnc(F)c2)nc(N2CCCC3NCCCC32)c1Cl` (stereo not drawn) [Compound 264] was tested, and the IC50 was 1.58 nM. `O=c1[nH]c(-c2ccnc(F)c2)nc(N2CCOC3CNCC32)c1Cl` (stereo not drawn) [Compound 216] showed an IC50 of 1.7 nM. `CN(c1nc(-c2ccnc(F)c2)[nH]c(=O)c1Cl)C1CCNCC1(C)C` (stereo not drawn) [Compound 210] gave an IC50 of 4.37 nM. `O=c1[nH]c(-c2ccnc(F)c2)nc(N2CCc3nncn3CC2)c1Cl` [Compound 354] showed an IC50 of 2 nM. In the case of `C[C@H]1CCCN1c1nc(-c2ccnc(F)c2)[nH]c(=O)c1Cl` [Compound 278], the IC50 is reported as 14.8 nM. `O=c1[nH]c(-c2ccnc(F)c2)nc(OCc2ccccc2)c1Cl` [Compound 294] was tested, and the IC50 was 182 nM. In the case of `CC(C)NC(=O)C1CCN(c2nc(-c3ccnc(F)c3)[nH]c(=O)c2Cl)CC1` [Compound 255], the IC50 is reported as 7.08 nM. For `O=c1[nH]c(-c2ccnc(F)c2)nc(N2C[C@H]3NCCO[C@@H]3C2)c1Cl` [Compound 237], the IC50 was 7.94 nM. `CN(Cc1ccccc1)c1nc(-c2ccnc(F)c2)[nH]c(=O)c1Cl` [Compound 289] gave an IC50 of 95.5 nM. With `O=c1[nH]c(-c2ccnc(F)c2)nc(N2CCn3cncc3C2)c1Cl` [Compound 346] the IC50 was 1.05 nM. Molecule `CO[C@H]1CCCN(c2nc(-c3ccnc(F)c3)[nH]c(=O)c2Cl)C1` [Compound 283] has an IC50 of 5.37 nM. `O=c1[nH]c(-c2ccnc(F)c2)nc(OC2CCNCC2)c1Cl` [Compound 329] was tested, and the IC50 was 0.617 nM. `CC[C@H]1COCCN1c1nc(-c2ccnc(F)c2)[nH]c(=O)c1Cl` [Compound 336] showed an IC50 of 1.82 nM. Molecule `NC1CN(c2nc(-c3ccnc(F)c3)[nH]c(=O)c2Cl)C1` [Compound 325] has an IC50 of 11.2 nM. `CNC(=O)C1CCN(c2nc(-c3ccnc(F)c3)[nH]c(=O)c2Cl)CC1` [Compound 231] gave an IC50 of 2.88 nM. `NC(=O)[C@@H]1CCCN1c1nc(-c2ccnc(F)c2)[nH]c(=O)c1Cl` [Compound 248] gave an IC50 of 42.7 nM. `O=c1[nH]c(-c2ccnc(F)c2)nc(N2CCCC23CCNCC3)c1Cl` [Compound 263] showed an IC50 of 11 nM. For `O=c1[nH]c(-c2ccnc(F)c2)nc(N2CCC3(CNC3)C2)c1Cl` [Compound 245], the IC50 was 2.04 nM. Molecule `CC(C)C(=O)NC1CCN(c2nc(-c3ccnc(F)c3)[nH]c(=O)c2Cl)CC1` [Compound 254] has an IC50 of 2.4 nM. `O=c1[nH]c(-c2ccnc(F)c2)nc(N2CCCC2)c1Cl` [Compound 276] gave an IC50 of 6.31 nM. With `O=c1[nH]c(-c2ccnc(F)c2)nc(N2CCC(C3CCOCC3)C2)c1Cl` (stereo not drawn) [Compound 228] the IC50 was 53.7 nM. `O=c1[nH]c(-c2ccnc(F)c2)nc(SC2CCOCC2)c1Cl` [Compound 191] was tested, and the IC50 was 3.72 nM. `O=C(NCCO)C1CCN(c2nc(-c3ccnc(F)c3)[nH]c(=O)c2Cl)CC1` [Compound 256] gave an IC50 of 2 nM. `CCN(c1nc(-c2ccnc(F)c2)[nH]c(=O)c1Cl)C1CCOCC1` [Compound 266] showed an IC50 of 36.3 nM. With `O=c1[nH]c(-c2ccnc(F)c2)nc(O[C@H]2CCOC2)c1Cl` [Compound 200] the IC50 was 8.13 nM. `N[C@@H]1CCN(c2nc(-c3ccnc(F)c3)[nH]c(=O)c2Cl)C1` [Compound 324] gave an IC50 of 14.5 nM. `O=c1[nH]c(-c2ccnc(F)c2)nc(N2CCOCC(O)C2)c1Cl` (stereo not drawn) [Compound 207] gave an IC50 of 1.29 nM. `NC(=O)CN1CCN(c2nc(-c3ccnc(F)c3)[nH]c(=O)c2Cl)CC(F)(F)C1` [Compound 414, 2-[4-[5-chloro-2-(2-fluoro-4-pyridyl)-6-oxo-1H-pyrimidin-4-yl]-6,6-difluoro-1,4-diazepan-1-yl]acetamide] gave an IC50 of 0.891 nM. `NC[C@H]1CCN(c2nc(-c3ccnc(F)c3)[nH]c(=O)c2Cl)C1` [Compound 219] was tested, and the IC50 was 6.76 nM. `NC(=O)[C@H]1CCCN1c1nc(-c2ccnc(F)c2)[nH]c(=O)c1Cl` [Compound 247] gave an IC50 of 4.57 nM. Molecule `O=c1[nH]c(-c2ccnc(F)c2)nc(N2CCC3(CCCNC3)C2)c1Cl` (stereo not drawn) [Compound 220] has an IC50 of 15.5 nM. For `O=c1[nH]c(-c2ccnc(F)c2)nc(N2C[C@H](O)C[C@H](O)C2)c1Cl` [Compound 189], the IC50 was 1.62 nM. With `O=c1[nH]c(-c2ccnc(F)c2)nc(N2CCC3(CCCN3)CC2)c1Cl` [Compound 241] the IC50 was 2.19 nM. For `O=c1[nH]c(-c2ccnc(F)c2)nc(N2CCC3(CCCCN3)C2)c1Cl` (stereo not drawn) [Compound 213], the IC50 was 53.7 nM. In the case of `O=c1[nH]c(-c2ccnc(F)c2)nc(N2CCC[C@H](Nc3ccccc3)C2)c1Cl` [Compound 209], the IC50 is reported as 85.1 nM. `O=c1[nH]c(-c2ccnc(F)c2)nc(N2CCOC(COc3ccccc3)C2)c1Cl` (stereo not drawn) [Compound 285] showed an IC50 of 9.12 nM. Molecule `O=c1[nH]c(-c2ccnc(F)c2)nc(N2CC3CNCC3C2)c1Cl` (stereo not drawn) [Compound 226] has an IC50 of 3.02 nM. Molecule `CN(C)C(=O)N1CCN(c2nc(-c3ccnc(F)c3)[nH]c(=O)c2Cl)CC1` [Compound 240] has an IC50 of 3.72 nM. `O=c1[nH]c(-c2ccnc(F)c2)nc(N2CCN[C@H](C3(O)CC3)C2)c1Cl` [Compound 311] was tested, and the IC50 was 2.09 nM. With `NC(=O)N1CCN(c2nc(-c3ccnc(F)c3)[nH]c(=O)c2Cl)CC1` [Compound 239] the IC50 was 1.1 nM. For `N#C[C@H]1CNCCN1c1nc(-c2ccnc(F)c2)[nH]c(=O)c1Cl` [Compound 344], the IC50 was 2.75 nM.
